Structures are written as SMILES. Active and inactive are the calls of the source. How the calls were made is not given here.

This experiment in a line: inhibitors of TNFa-induced VCAM1 expression, confirmation, imaging, TNFa stimulus, retest and dose response (AID 1013).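 On cell count: compound on cells 1 h before TNFa then 24 h more.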 To be noted: TNFa-stimulated cells, VCAM1 expression imaging; for inhibition: at 2 µM, stronger effect = higher value; for cell count: at 10 µM, stronger effect = lower value.

In general, inhibition refers to the relative decrease from the control value, in per cent. As to `O=C(N/N=C/c1ccncc1)c1ccccc1`, the inhibition was 5.8% (inactive). On the same count and under the same terms, the value for `Cn1c(SCC(=O)NC2CCCCC2)nnc1-c1cccc(N)c1` was 4.3% (inactive); that for `O=C(C1CCC1)N1CCc2cc(S(=O)(=O)Nc3ccc4c(c3)OCCO4)ccc21` was -2.3% (inactive); that for `Cc1cccnc1Nc1nc(-c2ccccn2)cs1` was -2.3% (inactive). For `CC1(C)Cc2c(oc3ncn4ncnc4c23)CO1`, the inhibition is -8% (inactive). In the case of `O=C(Cc1ccc(-n2cccc2)cc1)NC1CCCCCC1`, the inhibition was 5.8% (inactive).

For the molecule `C/C(=C\C(=O)c1cccnc1)Nc1ccc(C)c(C)c1`, the inhibition is -15.6% (inactive). Same read-out and setting: the figure for `CN1CCc2nc3sc(C#N)c(N)c3c(-c3cccs3)c2C1` is -13.9% (inactive); for `CCC(C)C1C(C#N)=C(N)Oc2n[nH]c(-c3ccccc3)c21` (configuration not stated) it is -12.6% (inactive). For `CSCCC(NC(=O)OCc1ccccc1)C(=O)O` (configuration not stated), the inhibition is 6.7% (inactive).

As for `COc1ccc2c(c1)CCc1c(C(=O)N3CC4(C)CC3CC(C)(C)C4)noc1-2` (configuration not stated), the inhibition is -14.4% (inactive). As for `CCOC(=O)Cc1cc(-c2ccc(O)cc2)nc2ccc3ccccc3c12`, the inhibition is 35.9% (inactive) and the cell count was found to be 100%. As for `Cc1cccc(C(=O)Oc2ccccc2C2C[C@]3(C)CC(=O)NC3N2C(=O)c2cccc(C)c2)c1` (some centres not stated), the inhibition was -2.5% (inactive). Still for that read-out and setting: the figure for `CC(=O)c1cccc(S(=O)(=O)N2CCC(n3nnc4cc(F)ccc43)CC2)c1` is 3.2% (inactive). On the same count and under the same terms, the value for `O=S(=O)(Nc1ccc(-n2cccc2)cc1)c1ccccc1` was 11.9% (inactive). On the same count and under the same terms, the figure for `Cc1cc(C)cc(OCCCCCNCCO)c1` is -9.9% (inactive); for `CCCOc1ccc(/C(O)=C2/C(=O)C(=O)N(CCOC)C2c2cccnc2)cc1` (configuration not stated) it is 8.7% (inactive). For `CCNc1nc(NCC)n2c(SCc3ccc(F)cc3)nnc2n1`, the inhibition was -6.3% (inactive). Regarding `Nc1cc(=O)nc(SCc2ccccc2)n1Cc1ccco1`, the inhibition was 7% (inactive). Consider `CCOC(=O)Cn1nnnc1CN(CCc1ccccc1)Cc1cc2cc(CC)ccc2[nH]c1=O`, for which the inhibition was 3.3% (inactive). In the case of `COc1ccc(S(=O)(=O)NC(CC(=O)NCc2ccco2)C(C)C)cc1` (configuration not stated), the inhibition was 4.6% (inactive). The same measure, in the same setting: the figure for `c1ccc(-c2nnc(CSc3nncs3)o2)cc1` is -12% (inactive); for `CC(C)NC1CS(=O)(=O)CC1O` (configuration not stated) it is -13.7% (inactive); for `COc1ccccc1N(C)S(=O)(=O)c1ccc(C(=O)NCC(C)C)cc1` it is -6.5% (inactive).

For the molecule `O=C(COC(=O)C1(c2ccccc2F)CCCC1)NC1CCS(=O)(=O)C1` (configuration not stated), the inhibition was -6.3% (inactive).

Consider `CCCc1cc(=O)[nH]c(SCC(=O)Nc2nonc2N)n1`, for which the inhibition was 9.8% (inactive). With `O=C(CS(=O)c1ccc(C(F)(F)F)cc1[N+](=O)[O-])Oc1ccccc1` (configuration not stated), the inhibition is 56.9% (inactive) and the cell count came out at 109%. For the molecule `Cc1cc(C)cc(OCC(=O)Nc2nonc2NC(=O)COc2cc(C)cc(C)c2)c1`, the inhibition was 12.1% (inactive).

Turning to `O=C(c1cc(-c2ccncc2)nc2ccc(Br)cc12)N1CCN(c2ccccn2)CC1`, the inhibition was 1.3% (inactive). The same measure, in the same setting: the value for `O=C(O)C1CCC(N2C(=O)C3CCCCC3C2=O)CC1` (configuration not stated) was 12.7% (inactive). Take `CCc1nc2oc3ccccc3c(=O)c2c(=O)n1CCOC`: the inhibition was -0.1% (inactive). Same read-out and setting: the value for `CC(C)C(=O)Nc1ccc(C(=O)NNC(=O)NC2CCCCC2)cc1` was -6.3% (inactive); that for `CCNCC(O)COCC(O)CNCC` (configuration not stated) was 1.3% (inactive).

`N=c1nc(N)nc2n1NC(c1ccc(F)cc1)=CS2`: the inhibition was -1.2% (inactive). `CSc1ccc(CNC2CN3CCC2CC3)cc1` (configuration not stated): the inhibition is 6.9% (inactive). On the same count and under the same terms, the value for `CC(C)(CO)NC(=O)CCCOc1ccc(Cl)cc1Cl` was -18.9% (inactive); that for `CCCCC(=O)NC(=S)Nc1ccccc1C(=O)Nc1ccccc1` was -2.5% (inactive); that for `CC(CCc1ccccc1)NC(=O)c1ccc(Br)o1` (configuration not stated) was -4.5% (inactive). Still for that read-out and setting: the figure for `C=C1N2CCC(CC2)C1(O)c1ccccc1C` (configuration not stated) is -7.5% (inactive); for `CCN(CC)S(=O)(=O)c1ccc(NC(=O)C(C)N(c2ccc(OC)cc2)S(C)(=O)=O)cc1` (configuration not stated) it is -3.6% (inactive). Consider `COc1ccc(Cn2c(CCC(=O)O)nc3cccnc32)cc1`, for which the inhibition is 1.7% (inactive).

As to `O=C(NCc1ccco1)c1cc(-c2ccc(Cl)cc2)on1`, the inhibition was -6.2% (inactive). For the molecule `O=C(NC1CC1)c1ccc(S(=O)(=O)NCC2CCCCC2)cc1`, the inhibition is 7.4% (inactive). Consider `COC(=O)c1sccc1NC(=O)c1ccc(Br)s1`, for which the inhibition was 4% (inactive). The same measure, in the same setting: the figure for `O=C(O)c1ccccc1Nc1ccccc1C(=O)O` is 0.6% (inactive). For `CCn1c(CN2CCN(c3ccc(Cl)cc3)CC2)nc2ccccc21`, the inhibition is 23.2% (inactive). Turning to `Cc1cc(OCc2ccc(F)cc2)nc(-c2ccccc2O)n1`, the inhibition is -12.1% (inactive).

In the case of `O=C1C2CCCN2C(c2cccnc2)N1c1ccc(Cl)c(Cl)c1` (configuration not stated), the inhibition was -2.6% (inactive). Regarding `O=C1CC(N2CCN(Cc3ccc4c(c3)OCO4)CC2)C(=O)N1Cc1ccc(N2CCCC2=O)cc1` (configuration not stated), the inhibition is -5.2% (inactive). The same measure, in the same setting: the value for `CCOC(=O)Cc1csc(SCC(=O)/C(C#N)=C(\C)N)n1` was 3.4% (inactive); that for `C=CCOC(=O)C1=C(C)OC(N)=C(C#N)C12C(=O)N(CN1CCOCC1)c1ccccc12` (configuration not stated) was -12.1% (inactive); that for `CC(=O)c1cccc(NC(=O)c2cc(-c3ccc(F)cc3)on2)c1` was -10.4% (inactive). On the same count and under the same terms, the figure for `Cc1oc2cc3c(C(=O)N4CCCCC4)c(C)oc3cc2c1C(=O)N1CCCCC1` is 4.7% (inactive); for `Cc1ccc(S(=O)(=O)Cn2nnnc2C(C(C)C)N2CCN(c3nc4ccccc4s3)CC2)cc1` (configuration not stated) it is -0.6% (inactive). Same read-out and setting: the figure for `CN1C(=O)C2(NCCc3c2[nH]c2ccccc32)c2ccccc21` (configuration not stated) is -19.9% (inactive). For `COC(=O)c1ccccc1NC(NC(=O)c1ccco1)C(=O)c1ccc(C)cc1` (configuration not stated), the inhibition was -5.6% (inactive). Still for that read-out and setting: the value for `COc1ccc(Nc2nc(N3CCCC3)nc3ccccc23)c(OC)c1` was 12.2% (inactive); that for `CSc1ccc(S(=O)(=O)Nc2ccc3c4c(cccc24)CC3)cc1` was 17.6% (inactive); that for `NC(=O)COC(=O)CCCc1c[nH]c2ccccc12` was 0.5% (inactive).

Regarding `COc1cc(C2Nc3ccc4ncccc4c3C3=C2C(=O)CCC3)cc(OC)c1O` (configuration not stated), the inhibition was -11.9% (inactive). With `CCCc1nnc(SCC(=O)O)n1/N=C/c1ccc2c(c1)OCO2`, the inhibition was -2% (inactive). For `CCN1CCC2(CC1)C(C#N)=C(N)Oc1c2sc2nc(C)cc(C)c12`, the inhibition was -4.5% (inactive). Same read-out and setting: the figure for `COc1ccc(S(=O)(=O)N2CCCC2C(=O)Nc2ccc(C)cc2)cc1` (configuration not stated) is -4% (inactive); for `CCOC(=O)c1cnn(-c2nc(-c3ccc(C)cc3)cs2)c1C(F)(F)F` it is 8.3% (inactive); for `Oc1ccc(N2CCN(c3ncnc4sc5c(c34)CCC5)CC2)cc1` it is 10.1% (inactive). On to `CCCOC(=O)CSC1=C(C#N)C(c2ccccc2OC)C(C#N)C(=O)N1` (configuration not stated), for which the inhibition is -11.7% (inactive). On the same count and under the same terms, the value for `COC(=O)c1[nH]c2cc(OC)ccc2c1NC(=O)CN1CCC(C(N)=O)(N2CCCCC2)CC1` was -3.9% (inactive). On the same count and under the same terms, the figure for `O=C1CCSc2cccc3cccc(c23)N1` is 2.8% (inactive). Same read-out and setting: the figure for `C[n+]1ccc(/C=C/c2ccc(Br)cc2)cc1` is 13.1% (inactive); for `N#Cc1c(NCc2ccccc2)ccnc1NCc1cccnc1` it is -17.4% (inactive). Consider `COc1cccc(CSc2nc3ccccc3cc2C=O)c1`, for which the inhibition was 43.3% (inactive) and the cell count is 91.7%. Consider `CCCCOCCCNC(=O)c1cccs1`, for which the inhibition was -15.4% (inactive). Take `COc1ccc(Oc2cc(NC(=O)c3nn(C)cc3[N+](=O)[O-])cc([N+](=O)[O-])c2)cc1`: the inhibition was 74.7% (inactive) and the cell count was 114%.

With `O=C(CN1CCCCCC1=O)OCc1ncc(-c2ccccc2)o1`, the inhibition is 9.7% (inactive). On to `CCOC(=O)c1ccc(NS(=O)C23CC4CC(CC(C4)C2)C3)cc1` (configuration not stated), for which the inhibition is -13.9% (inactive). Same read-out and setting: the figure for `Cn1nc(C(=O)OCC(=O)N2CCc3ccccc32)c2ccccc2c1=O` is 4.8% (inactive); for `COc1cccc(OC)c1NC(=O)CN1CCC(NC(=O)c2cccc(F)c2)CC1` it is 6.5% (inactive); for `O=C(Oc1csc(=S)n1C(=O)c1ccccc1)c1ccccc1` it is 4% (inactive).

In the case of `O=C(NCc1ccco1)c1ccc(CS(=O)(=O)Cc2ccc(Cl)cc2)o1`, the inhibition was -2.1% (inactive). Same read-out and setting: the value for `CCOc1ccc(N2C(=O)CSC2c2ccncc2)cc1` (configuration not stated) was 0% (inactive); that for `CCC(=O)N1c2ccc(S(=O)(=O)CCC(=O)N3CCn4c3nc3ccccc34)cc2CC1C` (configuration not stated) was -14.1% (inactive); that for `Cc1ccc(NC(=O)Cn2nnc(-c3ccccc3NC(=O)c3cccs3)n2)cc1` was 9.2% (inactive).

As to `O=C1Nc2ccc(S(=O)(=O)N3CCOCC3)c3cccc1c23`, the inhibition was -7.2% (inactive). As to `CCNC(=O)CCn1nc(-c2ccc(Cl)cc2)c2ccccc2c1=O`, the inhibition is -0.3% (inactive).

Turning to `O=C(NC(Cc1c[nH]c2ccccc12)C(=O)O)c1ccco1` (configuration not stated), the inhibition was -11.2% (inactive). Still for that read-out and setting: the value for `Cc1cccc(N(CC(=O)N/N=C/c2ccc(OCC(=O)NCc3ccco3)cc2)S(C)(=O)=O)c1C` was -4.7% (inactive). For `C=CCc1ccccc1OCC(O)CNC` (configuration not stated), the inhibition was 5.5% (inactive). With `Cc1ccn2c(NC(=O)c3ccco3)c(-c3ccccc3)nc2c1`, the inhibition is 3.4% (inactive).
